Measured values from patent US8618065B2 (Max-Planck-Gesellschaft zur Foerderung der Wissenschaften …, priority 2009, dated 2013).

Legend:
OVA/alum-sensitized mice = assay: Asthma studies: ovalbumin sensitization, bronchial lavage, FACS; type: in vivo, mice (BALE/c line)
Description: An immune response to ovalbumin was provoked by administering ovalbumin together with aluminium hydroxide. The immune response can be tracked with the help of the T helper cells population (CD4+) which has migrated into the bronchial lining and the eosinophilic granulocytes which have migrated in.
Female mice (BALE/c line) were sensitized by intraperitoneal (i.p.) administration of 50 μg ovalbumin (OVA) dissolved in phosphate buffer (PBS) plus 100 μL aluminium hydroxide (alum) with a total volume of 200 μL per mouse on day 0.100 μg OVA in PBS (50 μL total volume) in each case was then administered intranasally to the OVA/alum-sensitized mice under mild anaesthesia (isoflurane) on days 7 to 10. From these animals groups were formed which additionally received on days 7, 9, and 11 either 250 μg Cs-103 in PBS (i.p.), PBS only (diluent) or no further addition (−). On day 12 all the animals were killed by CO2 exposure and cells of the bronchial tract were obtained by bronchial lavage (BAL) by means of a cannula introduced into the trachea washing three times each with 1 ml cold PBS. The obtained cells of the BAL were then double dyed (a) with Cy-Chrome-conjugated anti-mouse CD4-antibodies and (b) with FITC-conjugated anti-mouse CD62L-antibodies. The cells were then analyzed by means of FACS. Effector/Memory […] T cells were distinguished as CD4^+/CD62L^− lymphocytes and eosinophilic cells with the help of their scattered light properties (FSC/SSC).

[1] = Toxicity test: leukocyte count in blood and spleen; type: in vivo, mice; conditions: three doses of 250 μg on 1st, 3rd and 5th day, cell count on 6th day; FIGS. 4 and 5
Description: FIG. 4 the number of leukocytes in the blood before and after administering three doses (1st, 3rd and 5th day) of 250 μg Cs-103 to each animal (determination on the 6th day); and
FIG. 5 the number of leukocytes in the spleen before and after administering three doses (1st, 3rd and 5th day) of 250 μg Cs-103 to each animal (determination on the 6th day).
As the leukocyte count in blood and spleen increases in the case of inflammatory diseases, the number of these cells was used as toxicity marker. As FIGS. 4 and 5 show, the selected compound Cs-103 (after administering three doses of 250 μg Cs-103, on the 1st, 3rd and 5th day, and cell count determination on the 6th day) is harmless in this assay.

[2] = blood cells vs plasma; cited from earlier work

| SMILES | number of eosinophilic granulocytes in the lung lavage fluid (OVA/alum-sensitized mice; 250 μg Cs-103, FIG. 3) | number of eosinophilic granulocytes which migrated through ovalbumin sensitization into the bronchial lining (OVA/alum-sensitized mice; 250 μg Cs-103, control: OVA-sensitized animals, FIG. 2) | number of CD4-positive T cells which migrated through ovalbumin sensitization into the bronchial lining (OVA/alum-sensitized mice; 250 μg Cs-103 i.p. on days 7, 9, 11, control: OVA-sensitized animals, FIG. 1) | leukocyte count in blood and spleen as toxicity marker [1] | concentration in blood cells relative to surrounding plasma [2] |
| --- | --- | --- | --- | --- | --- |
| CC[C@@H]1NC(=O)[C@H]([C@H](O)[C@H](C)CCN(CCC(=O)N[C@H](CCC(=O)O)C(=O)N[C@H](CCC(=O)O)C(=O)N[C@H](CCC(=O)O)C(=O)N[C@H](CCC(=O)O)C(=O)N[C@H](CCC(=O)O)C(=O)N[C@H](CCC(=O)O)C(=O)NCC(=O)O)C(C)=O)N(C)C(=O)[C@H](C(C)C)N(C)C(=O)[C@H](CC(C)C)N(C)C(=O)[C@H](CC(C)C)N(C)C(=O)[C@@H](C)NC(=O)[C@H](C)NC(=O)[C@H](CC(C)C)N(C)C(=O)[C@H](C(C)C)NC(=O)[C@H](CC(C)C)N(C)C(=O)CN(C)C1=O [Cs-103] | very significantly reduced | very significantly reduced | very significantly reduced | harmless |  |
| C/C=C/C[C@@H](C)[C@@H](O)[C@H]1C(=O)N[C@@H](CC)C(=O)N(C)CC(=O)N(C)[C@@H](CC(C)C)C(=O)N[C@@H](C(C)C)C(=O)N(C)[C@@H](CC(C)C)C(=O)N[C@@H](C)C(=O)N[C@H](COCCO)C(=O)N(C)[C@@H](CC(C)C)C(=O)N(C)[C@@H](CC(C)C)C(=O)N(C)[C@@H](C(C)C)C(=O)N1C [SDZ IMM 125] |  |  |  |  | approximately 8 × |
